# Measurements published in patent publication US11498899B2, “Nitrone herbicides” (FMC Corporation, priority 2016, dated 2022).
# Legend:
# [1] = tested on: barnyardgrass (Echinochloa crus-galli); assay: Test A preemergence, visual injury rating 0-100 (0 no effect, 100 complete control); format: in vivo; settings: for Barnyardgrass plant response rating (0 to 100 scale): 125 g ai/ha
# [2] = tested on: ragweed (common ragweed, Ambrosia elatior); assay: Test A postemergence, visual injury rating 0-100; format: in vivo; settings: 0 to 100 scale
# [3] = tested on: barnyardgrass (Echinochloa crus-galli); assay: Test A postemergence, visual injury rating 0-100; format: in vivo; settings: 0 to 100 scale
# [4] = tested on: ryegrass, Italian (Italian ryegrass, Lolium multiflorum); assay: Test A postemergence, visual injury rating 0-100; format: in vivo; settings: 0 to 100 scale
# kochia (Kochia scoparia) [5] = assay: Test A postemergence, visual injury rating 0-100; format: in vivo; settings: 0 to 100 scale
# [6] = tested on: wheat (Triticum aestivum); assay: Test A postemergence, visual injury rating 0-100; format: in vivo; settings: 0 to 100 scale
# corn (Zea mays) = assay: Test A postemergence, visual injury rating 0-100; format: in vivo; settings: 0 to 100 scale
# [7] = tested on: foxtail, green (green foxtail, Setaria viridis); assay: Test A postemergence, visual injury rating 0-100; format: in vivo; settings: 0 to 100 scale
# [8] = tested on: galium (catchweed bedstraw, Galium aparine); assay: Test A postemergence, visual injury rating 0-100; format: in vivo; settings: 0 to 100 scale
# [9] = tested on: pigweed (Amaranthus retroflexus); assay: Test A postemergence, visual injury rating 0-100; format: in vivo; settings: 0 to 100 scale
# [10] = tested on: blackgrass (Alopecurus myosuroides); assay: Test A postemergence, visual injury rating 0-100; format: in vivo; settings: 0 to 100 scale
# [11] = tested on: barnyardgrass (Echinochloa crus-galli); assay: Test B flooded paddy test, visual rating 0-100; settings: Flood, 250 g ai/ha, applied to paddy water, rated after 13 to 15 days
# [12] = tested on: ragweed (common ragweed, Ambrosia elatior); assay: Test A preemergence, visual injury rating 0-100; format: in vivo; settings: for Ragweed plant response rating: 31 g ai/ha, 0 to 100 scale (0 no effect, 100 complete control), approx. 10 days
# [13] = tested on: ryegrass, Italian (Italian ryegrass, Lolium multiflorum); assay: Test A preemergence, visual injury rating 0-100; format: in vivo; settings: for Ryegrass, Italian plant response rating: 31 g ai/ha, 0 to 100 scale (0 no effect, 100 complete control), approx. 10 days
# kochia (Kochia scoparia) [14] = assay: Test A preemergence, visual injury rating 0-100; format: in vivo; settings: for Kochia plant response rating: 31 g ai/ha, 0 to 100 scale (0 no effect, 100 complete control), approx. 10 days
# [15] = tested on: foxtail, green (green foxtail, Setaria viridis); assay: Test A preemergence, visual injury rating 0-100; format: in vivo; settings: for Foxtail, Green plant response rating: 31 g ai/ha, 0 to 100 scale (0 no effect, 100 complete control), approx. 10 days
# [16] = tested on: pigweed (Amaranthus retroflexus); assay: Test A preemergence, visual injury rating 0-100; format: in vivo; settings: for Pigweed plant response rating: 31 g ai/ha, 0 to 100 scale (0 no effect, 100 complete control), approx. 10 days
# rice (Oryza sativa) = assay: Test B flooded paddy test, visual rating 0-100 (0 no effect, 100 complete control); settings: Flood, 250 g ai/ha, applied to paddy water, rated after 13 to 15 days
# [17] = tested on: ducksalad (Heteranthera limosa); assay: Test B flooded paddy test, visual rating 0-100; settings: Flood, 250 g ai/ha, applied to paddy water, rated after 13 to 15 days
# [18] = 31 g ai/ha, 0 to 100 scale (0 no effect, 100 complete control), approx. 10 days
SMILES,Barnyardgrass plant response rating (0 to 100 scale) [1],Ragweed plant response rating ([2]; 125 g ai/ha),Barnyardgrass plant response rating ([3]; 125 g ai/ha),"Ryegrass, Italian plant response rating ([4]; 125 g ai/ha)",Kochia plant response rating (kochia (Kochia scoparia) [5]; 125 g ai/ha),Wheat plant response rating ([6]; 125 g ai/ha),Corn plant response rating (corn (Zea mays); 125 g ai/ha),"Foxtail, Green plant response rating ([7]; 125 g ai/ha)",Galium plant response rating ([8]; 125 g ai/ha),Pigweed plant response rating ([9]; 125 g ai/ha),Blackgrass plant response rating ([10]; 125 g ai/ha),Barnyardgrass plant response rating (0 to 100 scale) [11],Ragweed plant response rating (0 to 100 scale) ([12]; 125 g ai/ha),"Ryegrass, Italian plant response rating (0 to 100 scale) ([13]; 125 g ai/ha)",Kochia plant response rating (0 to 100 scale) (kochia (Kochia scoparia) [14]; 125 g ai/ha),"Foxtail, Green plant response rating (0 to 100 scale) ([15]; 125 g ai/ha)",Pigweed plant response rating (0 to 100 scale) ([16]; 125 g ai/ha),Rice plant response rating (0 to 100 scale) (rice (Oryza sativa)),Ducksalad plant response rating (0 to 100 scale) [17],"Barnyardgrass plant response rating [1, 18]",also measured
CC1=[N+]([O-])C(C(=O)Nc2cccnc2F)C(c2ccc(C(F)(F)F)cc2)C1 (racemic) [Compound 41],90,0,30,0,0,0,0,40,60,30,30,20,80,10,0,80,90,0,80,–,"Barnyardgrass plant response rating ([1]; 500 g ai/ha, 0 to 100 scale): 100; Ragweed plant response rating ([2]; 500 g ai/ha): 40; Barnyardgrass plant response rating ([3]; 500 g ai/ha): 90; Ryegrass, Italian plant response rating ([4]; 500 g ai/ha): 70; Kochia plant response rating (kochia (Kochia scoparia) [5]; 500 g ai/ha): 20; Wheat plant response rating ([6]; 500 g ai/ha): 30; Corn plant response rating (corn (Zea mays); 500 g ai/ha): 0; Foxtail, Green plant response rating ([7]; 500 g ai/ha): 80; Galium plant response rating ([8]; 500 g ai/ha): 70; Pigweed plant response rating ([9]; 500 g ai/ha): 70; Blackgrass plant response rating ([10]; 500 g ai/ha): 50; Ragweed plant response rating (0 to 100 scale) ([12]; 500 g ai/ha): 100; Ryegrass, Italian plant response rating (0 to 100 scale) ([13]; 500 g ai/ha): 70; Kochia plant response rating (0 to 100 scale) (kochia (Kochia scoparia) [14]; 500 g ai/ha): 90; Foxtail, Green plant response rating (0 to 100 scale) ([15]; 500 g ai/ha): 100; Pigweed plant response rating (0 to 100 scale) ([16]; 500 g ai/ha): 90"
"CC1=[N+]([O-])[C@H](C(=O)Nc2cccc(F)c2F)[C@@H](c2ccc(C)cc2)C1 [Compound 42, (2S,3R)—N-(2,3-Difluorophenyl)-3,4-dihydro-5-methyl-3-(4-methylphenyl)-2H-pyrrole-2-carboxamide 1-oxide]",100,30,90,30,30,80,50,90,60,20,80,90,70,80,90,100,80,30,100,100,"Ragweed plant response rating ([2]; 31 g ai/ha): 0; Barnyardgrass plant response rating ([3]; 31 g ai/ha): 50; Ryegrass, Italian plant response rating ([4]; 31 g ai/ha): 0; Kochia plant response rating (kochia (Kochia scoparia) [5]; 31 g ai/ha): 0; Wheat plant response rating ([6]; 31 g ai/ha): 20; Corn plant response rating (corn (Zea mays); 31 g ai/ha): 20; Foxtail, Green plant response rating ([7]; 31 g ai/ha): 50; Galium plant response rating ([8]; 31 g ai/ha): 40; Pigweed plant response rating ([9]; 31 g ai/ha): 0; Blackgrass plant response rating ([10]; 31 g ai/ha): 80; Ragweed plant response rating [12]: 0; Ryegrass, Italian plant response rating [13]: 0; Kochia plant response rating (kochia (Kochia scoparia) [14]): 0; Foxtail, Green plant response rating [15]: 100; Pigweed plant response rating [16]: 0"
CC1=[N+]([O-])[C@@H](C(=O)Nc2cccc(F)c2F)[C@H](c2cccc(C(F)(F)F)c2)C1 [Compound 45],100,0,50,40,0,60,50,80,30,20,60,75,80,80,20,100,0,0,95,40,"Ragweed plant response rating ([2]; 31 g ai/ha): 0; Barnyardgrass plant response rating ([3]; 31 g ai/ha): 10; Ryegrass, Italian plant response rating ([4]; 31 g ai/ha): 10; Kochia plant response rating (kochia (Kochia scoparia) [5]; 31 g ai/ha): 0; Wheat plant response rating ([6]; 31 g ai/ha): 30; Corn plant response rating (corn (Zea mays); 31 g ai/ha): 40; Foxtail, Green plant response rating ([7]; 31 g ai/ha): 30; Galium plant response rating ([8]; 31 g ai/ha): 20; Pigweed plant response rating ([9]; 31 g ai/ha): 0; Blackgrass plant response rating ([10]; 31 g ai/ha): 20; Ragweed plant response rating [12]: 0; Ryegrass, Italian plant response rating [13]: 10; Kochia plant response rating (kochia (Kochia scoparia) [14]): 0; Foxtail, Green plant response rating [15]: 90; Pigweed plant response rating [16]: 0"
